Data: patent publication US8795630B2, “Butyrylcholinesterase ligands as diagnostic tools and treatment for diseases of the nervous system” (Treventis Corporation, priority 2008, dated 2014)

Key:
[1] = molecular target: human recombinant AChE (Homo sapiens, UniProt P22303); assay: Acetylcholinesterase in vitro assay (hydrolysis of ligand followed by UV/Vis repetitive scans); type: biochemical; settings: phosphate buffer pH 8.0; change of absorbance in repeated scans
Method: In Examples 23-28, the interaction of the ligands with AChE was determined by measuring the rate of hydrolysis of the ligand in a buffered solution containing the enzyme. AChE stock solution consisted of 240 μg of human recombinant AChE dissolved in 1.5 mL of 0.1% aq. Gelatin. All ligands used in the assay were dissolved in a minimal amount of acetonitrile to form a ligand solution. 0.1 M Phosphate buffer PH 8.0 consisted of 1.2 g of NaH2PO4 dissolved in 100 mL of water and adjusted to the appropriate pH. The Assay was carried out by mixing 0.1 μmole of ligand solution with 5 μL of AChE stock solution and bringing the volume in a quartz cuvette of 1 cm path length to 1.5 mL with phosphate buffer. Scans using an UltraSpec 2100 Pro UV/Visible spectrophotometer over a wavelength of 200-900 nm monitored the rate of hydrolysis of the ligand by the enzyme. Change of absorbance in the spectrum indicated hydrolysis of the ligand by the enzyme.

[2] = molecular target: T1, BuChE (Homo sapiens, UniProt P06276); assay: Butyrylcholinesterase in vitro assay (hydrolysis of ligand followed by UV/Vis repetitive scans); type: biochemical; settings: phosphate buffer pH 8.0; change of absorbance in repeated scans
T1 sequence (P06276 29-602): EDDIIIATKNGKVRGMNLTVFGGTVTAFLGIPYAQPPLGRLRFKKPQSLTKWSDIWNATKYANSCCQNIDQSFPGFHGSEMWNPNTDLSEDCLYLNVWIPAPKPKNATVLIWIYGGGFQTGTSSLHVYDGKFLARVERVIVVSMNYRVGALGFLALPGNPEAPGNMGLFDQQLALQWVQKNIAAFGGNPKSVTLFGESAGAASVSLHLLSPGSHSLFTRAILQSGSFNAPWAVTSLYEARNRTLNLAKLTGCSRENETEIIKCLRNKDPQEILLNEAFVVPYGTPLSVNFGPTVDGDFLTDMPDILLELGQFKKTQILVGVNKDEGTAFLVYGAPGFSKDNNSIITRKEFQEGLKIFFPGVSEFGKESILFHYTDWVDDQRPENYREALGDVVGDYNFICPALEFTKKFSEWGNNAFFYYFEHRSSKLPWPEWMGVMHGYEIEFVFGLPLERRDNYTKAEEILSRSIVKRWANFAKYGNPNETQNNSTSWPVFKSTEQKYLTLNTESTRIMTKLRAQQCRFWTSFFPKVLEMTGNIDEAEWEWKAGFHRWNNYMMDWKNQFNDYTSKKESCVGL
Method: In Examples 39-54, interaction of the ligands with BuChE was determined by measuring the rate of the hydrolysis of the ligand in a buffered solution containing the enzyme. All ligands used in the assay were dissolved in a minimal amount of acetonitrile to form a ligand solution. 0.1 M Phosphate buffer PH 8.0 was prepared as to the above specifications. The Assay was carried out by mixing 0.1 μmol of ligand solution with 5 μL of BuChE stock solution and bringing the volume in a quartz cuvette of 1 cm path length to 1.5 mL with phosphate buffer. Scans using an UltraSpec 2100 Pro UV/Visible spectrophotometer over a wavelength of 200-900 nm monitored the rate of hydrolysis of the ligand by the enzyme. Change of absorbance in the spectrum indicated hydrolysis of the ligand by the enzyme. The results of these experiments generally indicate that enzymatic hydrolysis of the compounds does occur in the presence of BuChE.

[3] = molecular target: T1, BuChE; assay: Michaelis-Menten constant and maximum reaction velocity measurement (Lineweaver-Burk plot); type: biochemical; settings: room temperature, λ=285 nm, average, N=3
Method: In Example 55, Km and relative Vmax values were determined for compounds identified to be hydrolyzed by BuChE. The assay was carried out by mixing 1 uL of BuChE stock solution in 1.4 mL of phosphate buffer. Absorbance of this solution was calibrated to zero and the reaction commenced with the addition of 100 μL of a solution of ligand in 100% acetonitrile. The reactions were carried out at room temperature. The rate of change of absorbance (ΔA/min), reflecting the rate of hydrolysis of the ligand by enzyme was recorded every 3 seconds for a total of 36 seconds using a Milton-Roy uv-visible spectrophotometer set at λ=285 nm.
A Lineweaver-Burk plot was used in order to determine the Km (substrate concentration at which the reaction rate reaches half of its maximum value), and relative Vmax (maximum reaction velocity), values. Average Michealis-Menten constant and maximum reaction velocity values for a selection compounds (N=3) were measured, and the results are set forth in Table 1 below.

[4] = SPECT imaging and brain fraction radiation counts after injection of radiolabeled compound; type: in vivo; settings: rat; after injection and several hours of SPECT imaging; sacrificed and perfused
Method: Shortly after the synthesis and purification detailed in Example 21, a rat was injected with the radiolabeled compound (6-oxo-1,6-dihydropyridin-2-yl)methyl-4-^123iodobenzoate and SPECT images were taken at regular time points for several hours.
After imaging, the rat was sacrificed and perfused. Radiation counts from HPLC attributable to (1,6-dihydro-6-oxopyridin-2-yl)methyl 4-^123iodobenzoate remaining in the brain fraction are shown in FIG. 4.

Sequence of human recombinant AChE (P22303 32-614): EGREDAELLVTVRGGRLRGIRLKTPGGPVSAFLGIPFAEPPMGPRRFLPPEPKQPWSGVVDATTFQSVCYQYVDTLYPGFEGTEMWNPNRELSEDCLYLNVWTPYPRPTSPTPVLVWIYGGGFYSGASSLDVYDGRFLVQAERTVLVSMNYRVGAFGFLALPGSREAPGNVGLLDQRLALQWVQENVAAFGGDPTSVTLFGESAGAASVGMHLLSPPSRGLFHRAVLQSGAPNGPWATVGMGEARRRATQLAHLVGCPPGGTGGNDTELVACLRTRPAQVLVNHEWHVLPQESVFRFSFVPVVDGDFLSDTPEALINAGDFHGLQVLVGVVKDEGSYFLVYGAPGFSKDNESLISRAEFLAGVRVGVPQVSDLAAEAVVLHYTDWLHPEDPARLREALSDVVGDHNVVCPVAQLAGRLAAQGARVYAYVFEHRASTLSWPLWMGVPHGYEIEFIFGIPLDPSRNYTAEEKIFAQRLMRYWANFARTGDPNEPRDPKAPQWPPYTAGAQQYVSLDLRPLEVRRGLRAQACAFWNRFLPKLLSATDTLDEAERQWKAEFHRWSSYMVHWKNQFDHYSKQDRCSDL

Row | SMILES | enzymatic hydrolysis of the compound in the presence of AChE [1] | enzymatic hydrolysis of the compound in the presence of BuChE [2] | Vmax (relative maximum reaction velocity) [3] | Km [3] [µM] | brain penetration (radiation counts in brain fraction, FIG. 4) [4]
1 | CN1CCC(OC(=O)c2cccc(C#N)c2)CC1 [1′-methylpiperidin-4′-yl 3-cyanobenzoate] | does not occur | does occur |  |  | 
2 | CN1CCC(OC(=O)c2cccc(I)c2)CC1 [1′-methylpiperidin-4′-yl 3-iodobenzoate] | does not occur | does occur |  |  | 
3 | CN1CCC(OC(=O)c2ccc(C#N)cc2)CC1 [1′-methylpiperidin-4′-yl 4-cyanobenzoate] | does not occur |  |  |  | 
4 | CN1CCC(OC(=O)c2ccccc2)CC1 [1′-methylpiperidin-4′-yl benzoate] | does not occur | does occur |  |  | 
5 | O=C(OCc1ccc[nH]c1=O)c1ccc(I)cc1 [Example 1, (1,2-dihydro-2-oxopyridin-3-yl)methyl 4-iodobenzoate] | does not occur | does occur |  |  | 
6 | O=C(OCc1ccc[nH]c1=O)c1ccc(F)cc1 [Example 2, (1,2-dihydro-2-oxopyridin-3-yl)methyl 4-fluorobenzoate] | does not occur | does occur |  |  | 
7 | N#Cc1ccc(C(=O)OCc2ccc[nH]c2=O)cc1 [Example 3, (1,2-dihydro-2-oxopyridin-3-yl)methyl 4-cyanobenzoate] | does not occur | does occur |  |  | 
8 | O=C(OCc1cccc(=O)[nH]1)c1ccc(I)cc1 [Example 4, (1,6-dihydro-6-oxopyridin-2-yl)methyl 4-iodobenzoate] | does not occur | does occur | 9.7 ± 1.7 ΔA min^−1 |  | 
9 | O=C(OCc1cccc(=O)[nH]1)c1ccc(F)cc1 [Example 5, (1,6-dihydro-6-oxopyridin-2-yl)methyl 4-fluorobenzoate] | does not occur | does occur |  |  | 
10 | N#Cc1ccc(C(=O)OCc2cccc(=O)[nH]2)cc1 [Example 6, (1,6-dihydro-6-oxopyridin-2-yl)methyl 4-cyanobenzoate] | does not occur | does occur |  |  | 
11 | CN1CCC(OC(=O)c2ccc(I)cc2)CC1 [Example 7, 1′-methylpiperidin-4′-yl 4-iodobenzoate] | does not occur | does occur | 8.4 ± 0.4 ΔA min^−1 | 26 ± 2 | 
12 | CN1CCC(OC(=O)c2ccc(F)cc2)CC1 [Example 8, 1′-methylpiperidin-4′-yl 4-fluorobenzoate] | does not occur | does occur | 36 ± 6 ΔA min^−1 | 753 ± 115 | 
13 | CN1CCC(OC(=O)c2ccc(C#N)cc2)CC1 [Example 9, 1′-methylpiperidin-4′-yl 4-cyanobenzoate] |  | does occur | 12 ± 3 ΔA min^−1 | 48 ± 18 | 
14 | CN1CCC(OC(=O)c2ccccc2)CC1 [Example 10, 1′-methylpiperidin-4′-yl benzoate] |  |  | 6.8 ± 0.5 ΔA min^−1 | 68 ± 9 | 
15 | CN1CC[C@H](OC(=O)c2ccc(I)cc2)C1 [Example 14, (5)-1′-methylpyrrolidin-3′-yl 4-iodobenzoate] | does not occur | does occur | 6.1 ± 0.5 ΔA min^−1 | 16 ± 4 | 
16 | CN1CC[C@H](OC(=O)c2ccc(C#N)cc2)C1 [Example 15, (S)-1′-methylpyrrolidin-3′-yl-4-cyanobenzoate] | does not occur | does occur | 16 ± 4 ΔA min^−1 | 200 ± 52 | 
17 | CN1CC[C@@H](OC(=O)c2ccc(I)cc2)C1 [Example 16, R-1′-methylpyrrolidin-3′-yl 4-iodobenzoate] | does not occur | does occur | 10 ± 9 ΔA min^−1 | 144 ± 121 | 
18 | CN1CC[C@@H](OC(=O)c2ccc(C#N)cc2)C1 [Example 17, R-1′-methylpyrrolidin-3′-yl-4-cyanobenzoate] | does not occur | does occur | 30 ± 3 ΔA min^−1 | 198 ± 18 | 
19 | O=C(OCc1cccc(=O)[nH]1)c1ccc([123I])cc1 [Example 21, (6-oxo-1,6-dihydropyridin-2-yl)methyl 4-^123iodobenzoate] |  |  |  |  | penetrates into the brain
20 | CCCC(=O)SCC[N+](C)(C)C [butyrylthiocholine, reference compound] |  |  |  | 30.6 ± 7 | 
